Reference: US10098937B2, “Peptides and combination of peptides for use in immunotherapy against various cancers” (immatics biotechnologies GmbH, priority 2015, dated 2018)

Test system: CD8+ T cells
Assay: In vitro immunogenicity: CD8+ T-cell priming with aAPCs loaded with HLA-A*02/peptide and anti-CD28, multimer readout
Format: cell-based, human
Settings: in vitro immunogenicity, Table 19B; HLA-A*02 peptides (SEQ ID 1-157, 229-266)
Description: FIGS. 4A to 4D show exemplary results of peptide-specific in vitro CD8+ T cell responses of a healthy HLA-A*02+ donor. CD8+ T cells were primed using artificial APCs coated with anti-CD28 mAb and HLA-A*02 in complex with SeqID No 27 peptide (FIG. 4A, left panel), SeqID No 229 peptide (FIG. 4B, left panel), SeqID No 230 peptide (FIG. 4C, left panel) and SeqID No 235 peptide (FIG. 4D, left panel), respectively. After three cycles of stimulation, the detection of peptide-reactive cells was performed by 2D multimer staining with A*02/SeqID No 27 (FIG. 4A), A*02/SeqID No 229 (FIG. 4B), A*02/SeqID No 230 (FIG. 4C) or A*02/SeqID No 235 (FIG. 4D). Right panels (FIGS. 4A, 4B, 4C and 4D) show control staining of cells stimulated with irrelevant A*02/peptide complexes. Viable singlet cells were gated for CD8+ lymphocytes. Boolean gates helped excluding false-positive events detected with multimers specific for different peptides. Frequencies of specific multimer+ cells among CD8+ lymphocytes are indicated.
In order to obtain information regarding the immunogenicity of the TUMAPs of the present invention, the inventors performed investigations using an in vitro T-cell priming assay based on repeated stimulations of CD8+ T cells with artificial antigen presenting cells (aAPCs) loaded with peptide/MHC complexes and anti-CD28 antibody.
In order to perform in vitro stimulations by artificial antigen presenting cells loaded with peptide-MHC complex (pMHC) and anti-CD28 antibody, the inventors first isolated CD8+ T cells from fresh HLA-A*02 leukapheresis products via positive selection using CD8 microbeads (Miltenyi Biotec, Bergisch-Gladbach, Germany) of healthy donors obtained from the University clinics Mannheim, Germany, after informed consent.
PBMCs and isolated CD8+ lymphocytes were incubated in T-cell medium (TCM) until use consisting of RPMI-Glutamax (Invitrogen, Karlsruhe, Germany) supplemented with 10% heat inactivated human AB serum (PAN-Biotech, Aidenbach, Germany), 100 U/ml Penicillin/100 μg/ml Streptomycin (Cambrex, Cologne, Germany), 1 mM sodium pyruvate (CC Pro, Oberdorla, Germany), 20 μg/ml Gentamycin (Cambrex). 2.5 ng/ml IL7 (PromoCell, Heidelberg, Germany) and 10 U/ml IL-2 (Novartis Pharma, Nürnberg, Germany) were also added to the TCM at this step.
Generation of pMHC/anti-CD28 coated beads, T-cell stimulations and readout was performed in a highly defined in vitro system using four different pMHC molecules per stimulation condition and 8 different pMHC molecules per readout condition.
The purified co-stimulatory mouse IgG2a anti human CD28 Ab 9.3 (Jung et al., 1987) was chemically biotinylated using Sulfo-N-hydroxysuccinimidobiotin as recommended by the manufacturer (Perbio, Bonn, Germany). Beads used were 5.6 μm diameter streptavidin coated polystyrene particles (Bangs Laboratories, Illinois, USA).
pMHC used for positive and negative control stimulations were A*0201/MLA-001 (peptide […] (SEQ ID NO. 303) from modified Melan-A/MART-1) and A*0201/DDX5-001 ([…] from DDX5, SEQ ID NO. 304), respectively.
800.000 beads/200 μl were coated in 96-well plates in the presence of 4×12.5 ng different biotin-pMHC, washed and 600 ng biotin anti-CD28 were added subsequently in a volume of 200 μl. Stimulations were initiated in 96-well plates by co-incubating […] CD8+ T cells with 2×10^5 washed coated beads in 200 μl TCM supplemented with 5 ng/ml IL-12 (PromoCell) for 3 days at 37° C. Half of the medium was then exchanged by fresh TCM supplemented with 80 U/ml IL-2 and incubating was continued for 4 days at 37° C. This stimulation cycle was performed for a total of three times. For the pMHC multimer readout using 8 different pMHC molecules per condition, a two-dimensional combinatorial coding approach was used as previously described (Andersen et al., 2012) with minor modifications encompassing coupling to 5 different fluorochromes. […]

Substance	Wells positive [%]
4 (KLMPGTYTL; listed as Homo sapiens) [compound 4]	+ (<20% = +)
5 (GIVAHIQEV; listed as Homo sapiens) [compound 5]	+ (<20% = +)
12 (GLLPLLHRA; listed as Homo sapiens) [compound 12]	++++ (> = 70% = ++++)
18 (ILLDLTDNRL; listed as Homo sapiens) [compound 18]	+ (<20% = +)
23 (SLFSDEFKV; listed as Homo sapiens) [compound 23]	++++ (> = 70% = ++++)
26 (ALQEELTEL; listed as Homo sapiens) [compound 26]	+ (<20% = +)
29 (YLLDPSITL; listed as Homo sapiens) [compound 29]	+ (<20% = +)
31 (TITETTVEV; listed as Homo sapiens) [compound 31]	+ (<20% = +)
35 (FLLPFSTVYL; listed as Homo sapiens) [compound 35]	+ (<20% = +)
90 (FLQDLEQRL; listed as Homo sapiens) [compound 90]	+ (<20% = +)
141 (FLDKVLVAA; listed as Homo sapiens) [compound 141]	+ (<20% = +)
149 (ILNTHITEL; listed as Homo sapiens) [compound 149]	+ (<20% = +)
230 (KLQNIMMLL; listed as Homo sapiens) [compound 230]	++++ (> = 70% = ++++)
249 (GLCERLVSL; listed as Homo sapiens) [compound 249]	+ (<20% = +)

Same assay, conditions: positive wells class; SEQ ID 290-293 (HLA-A*02 peptides)

Substance	in vitro immunogenicity, Wells
291 (KLDETGNSL; listed as Homo sapiens) [compound 291]	+ (<20% = +)
292 (GMMTAILGV; listed as Homo sapiens) [compound 292]	+ (<20% = +)
293 (FLVDGSWSI; listed as Homo sapiens) [compound 293]	+ (<20% = +)

Target: HLA-A*02 (Homo sapiens, UniProt P04439, D140Y/D185E/D98H/E176V/E277Q/G131W/G231S/I119V/I121R/I166T/I218V/N151K/N90K/P208A/P217A/Q86G/Q94H/R138H/R169H)
Assay: MHC binding assay (UV-ligand exchange, β2m ELISA), HLA-A*02
Settings: peptide exchange yield, binding to HLA-A*02, Table 20
Description: Candidate peptides for T cell based therapies according to the present invention were further tested for their MHC binding capacity (affinity). The individual peptide-MHC complexes were produced by UV-ligand exchange, where a UV-sensitive peptide is cleaved upon UV-irradiation, and exchanged with the peptide of interest as analyzed. Only peptide candidates that can effectively bind and stabilize the peptide-receptive MHC molecules prevent dissociation of the MHC complexes. To determine the yield of the exchange reaction, an ELISA was performed based on the detection of the light chain (β2m) of stabilized MHC complexes. The assay was performed as generally described in Rodenko et al. (Rodenko et al., 2006).
96 well MAXISorp plates (NUNC) were coated over night with 2 ug/ml streptavidin in PBS at room temperature, washed 4× and blocked forth at 37° C. in 2% BSA containing blocking buffer. Refolded HLA-A*02:01/MLA-001 monomers served as standards, covering the range of 15-500 ng/ml. Peptide-MHC monomers of the UV-exchange reaction were diluted 100 fold in blocking buffer. Samples were incubated for 1 h at 37° C., washed four times, incubated with 2 ug/ml HRP conjugated anti-β2m for 1 h at 37° C., washed again and detected with TMB solution that is stopped with […]. Absorption was measured at 450 nm. Candidate peptides that show a high exchange yield (preferably higher than 50%, most preferred higher than 75%) are generally preferred for a generation and production of antibodies or fragments thereof, and/or T cell receptors or fragments thereof, as they show sufficient avidity to the MHC molecules and prevent dissociation of the MHC complexes.

Substance	Peptide exchange
4 (KLMPGTYTL; listed as Homo sapiens) [compound 4]	++++ (> = 75% = ++++)
12 (GLLPLLHRA; listed as Homo sapiens) [compound 12]	++++ (> = 75% = ++++)
249 (GLCERLVSL; listed as Homo sapiens) [compound 249]	++++ (> = 75% = ++++)
